Assay results taken from PubChem BioAssay AID1259411 (Chemical Carcinogenesis Research Information System (CCRIS), 2018).
Calls of active or inactive are those of the source. No rule for the calls is given here.

Test system: rodent carcinogenicity bioassays, tumor incidence
Test: CCRIS carcinogenicity studies
Outline: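 Archive of carcinogenicity, mutagenicity, tumor promotion and tumor inhibition results drawn from journals, NCI reports and other sources, expert-reviewed; covers 1985-2011 and is no longer updated.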

CCc1ccc(C(c2ccc(CC)cc2)C(Cl)Cl)cc1
carcinogen call (Species: MOUSE, Strain/Sex: B6C3F1/FEMALE, Route: ORAL, Dose: 0, 5000 IN DIET FOR FIRST 48 WK FOLLOWED BY 1000 PPM IN DIET FOR LAST 57 WK, 10000 PPM IN DIET FOR 48 WK FOLLOWED BY 300, Dose: 0, 5000 IN DIET FOR FIRST 48 WK FOLLOWED BY 1000 PPM IN DIET FOR LAST 57 WK, 10000 PPM IN DIET FOR 48 WK FOLLOWED BY 300, Tumor Site: Type of Lesion: LIVER: HEPATOCELLULAR CARCINOMA OR ADENOMA): equivocal | carcinogen call (Species: MOUSE, Strain/Sex: B6C3F1/MALE, Route: ORAL, Dose: 0, 2,500, 5,000 PPM IN DIET FOR 105 WK (STUDY DURATION: 105 WK), Dose: 0, 2,500, 5,000 PPM IN DIET FOR 105 WK (STUDY DURATION: 105 WK)): inactive; negative | carcinogen call (Species: RAT, Strain/Sex: F344/FEMALE, Route: ORAL, Dose: 0, 3,500, 7,000 PPM IN DIET FOR 105 WK (STUDY DURATION: 105 WK), Dose: 0, 3,500, 7,000 PPM IN DIET FOR 105 WK (STUDY DURATION: 105 WK)): inactive; negative | carcinogen call (Species: RAT, Strain/Sex: F344/MALE, Route: ORAL, Dose: 0, 3,500, 7,000 PPM IN DIET FOR 105 WK (STUDY DURATION: 105 WK), Dose: 0, 3,500, 7,000 PPM IN DIET FOR 105 WK (STUDY DURATION: 105 WK)): inactive; negative

COC(C)(C)C
carcinogen call (Species: MOUSE, Strain/Sex: CD-1/FEMALE, Route: INHALATION, Dose: 0, 400, 3000, 8000 PPM IN AIR 6 HR/D 5 D/WK FOR 18 MO (STUDY DURATION: 18 MO), Dose: 0, 400, 3000, 8000 PPM IN AIR 6 HR/D 5 D/WK FOR 18 MO (STUDY DURATION: 18 MO), Tumor Site: Type of Lesion: LIVER: ADENOMA): active; positive | carcinogen call (Species: MOUSE, Strain/Sex: CD-1/MALE, Route: INHALATION, Dose: 0, 400, 3000, 8000 PPM IN AIR 6 HR/D 5 D/WK FOR 18 MO (STUDY DURATION: 18 MO), Dose: 0, 400, 3000, 8000 PPM IN AIR 6 HR/D 5 D/WK FOR 18 MO (STUDY DURATION: 18 MO)): inactive; negative | carcinogen call (Species: RAT, Strain/Sex: F344/FEMALE, Route: INHALATION, Dose: 0, 400, 3000, 8000 PPM IN AIR 6 HR/D 5 D/WK FOR 24 MO (STUDY DURATION: 24 MO), Dose: 0, 400, 3000, 8000 PPM IN AIR 6 HR/D 5 D/WK FOR 24 MO (STUDY DURATION: 24 MO)): inactive; negative | carcinogen call (Species: RAT, Strain/Sex: F344/MALE, Route: INHALATION, Dose: 0, 400, 3000, 8000 PPM IN AIR 6 HR/D 5 D/WK FOR 24 MO (STUDY DURATION: 24 MO), Dose: 0, 400, 3000, 8000 PPM IN AIR 6 HR/D 5 D/WK FOR 24 MO (STUDY DURATION: 24 MO), Tumor Site: Type of Lesion: KIDNEY(RENAL TUBULE): ADENOMA OR CARCINOMA): active; positive | carcinogen call (Species: RAT, Strain/Sex: SPRAGUE-DAWLEY/FEMALE, Route: GAVAGE, Dose: 0, 250, 1000 MG/KG BW IN 1 ML OLIVE OIL 1/D 4 D/WK FOR 104 WK (STUDY DURATION: 166 WK), Dose: 0, 250, 1000 MG/KG BW IN 1 ML OLIVE OIL 1/D 4 D/WK FOR 104 WK (STUDY DURATION: 166 WK), Tumor Site: Type of Lesion: HEMOLYMPHORETICULAR SYSTEM: LYMPHOMA OR LEUKEMIA): active; positive | carcinogen call (Species: RAT, Strain/Sex: SPRAGUE-DAWLEY/FEMALE, Route: GAVAGE, Dose: 0, 250, 1000 MG/KG BW IN OLIVE OIL 1/D 4D/WK FOR 104 WK (STUDY DURATION: LIFE SPAN), Dose: 0, 250, 1000 MG/KG BW IN OLIVE OIL 1/D 4D/WK FOR 104 WK (STUDY DURATION: LIFE SPAN), Tumor Site: Type of Lesion: MULTIPLE SITES: LYMPHOMA OR LEUKEMIA): active; positive | carcinogen call (Species: RAT, Strain/Sex: SPRAGUE-DAWLEY/MALE, Route: GAVAGE, Dose: 0, 250, 1000 MG/KG BW IN 1 ML OLIVE OIL 1/D 4 D/WK FOR 104 WK (STUDY DURATION: 166 WK), Dose: 0, 250, 1000 MG/KG BW IN 1 ML OLIVE OIL 1/D 4 D/WK FOR 104 WK (STUDY DURATION: 166 WK), Tumor Site: Type of Lesion: TESTES: LEYDIG CELL TUMOR): active; positive | carcinogen call (Species: RAT, Strain/Sex: SPRAGUE-DAWLEY/MALE, Route: GAVAGE, Dose: 0, 250, 1000 MG/KG BW IN OLIVE OIL 1/D 4D/WK FOR 104 WK (STUDY DURATION: LIFE SPAN), Dose: 0, 250, 1000 MG/KG BW IN OLIVE OIL 1/D 4D/WK FOR 104 WK (STUDY DURATION: LIFE SPAN), Tumor Site: Type of Lesion: TESTES: LEYDIG CELL TUMOR): active; positive

[Cr]
carcinogen call (Species: HUMAN, Route: INHALATION, ORAL, Tumor Site: Type of Lesion: LUNG): active; positive

N#Cc1nn(-c2c(Cl)cc(C(F)(F)F)cc2Cl)c(N)c1S(=O)C(F)(F)F (centres undefined)
carcinogen call (Species: Mouse, Strain/Sex: CD-1/Female (32/Group), Route: Oral, Dose: 0, 0.1, 0.5, 10, 30 ppm of 95.4% fipronil in diet for 78 wks, study duration 78 wks, Dose: 0, 0.1, 0.5, 10, 30 ppm of 95.4% fipronil in diet for 78 wks, study duration 78 wks): inactive; negative | carcinogen call (Species: Mouse, Strain/Sex: CD-1/Male (32/Group), Route: Oral, Dose: 0, 0.1, 0.5, 10, 30 ppm of 95.4% fipronil in diet for 78 wks, study duration 78 wks, Dose: 0, 0.1, 0.5, 10, 30 ppm of 95.4% fipronil in diet for 78 wks, study duration 78 wks, Tumor Site: Type of Lesion: Liver: malignant hepatocellular tumors at highest dose): active; positive | carcinogen call (Species: Rat, Strain/Sex: CD/Female (50/Group), Route: Oral, Dose: 0, 0.5, 1.5, 30, 300 ppm of 95.4% fipronil in diet for 89-91 wks, study duration 104 wks, Dose: 0, 0.5, 1.5, 30, 300 ppm of 95.4% fipronil in diet for 89-91 wks, study duration 104 wks, Tumor Site: Type of Lesion: Thyroid: follicular cell adenoma and carcinoma at highest dose): active; positive | carcinogen call (Species: Rat, Strain/Sex: CD/Male (50/Group), Route: Oral, Dose: 0, 0.5, 1.5, 30, 300 ppm of 95.4% fipronil in diet for 89-91 wks, study duration 104 wks, Dose: 0, 0.5, 1.5, 30, 300 ppm of 95.4% fipronil in diet for 89-91 wks, study duration 104 wks, Tumor Site: Type of Lesion: Thyroid: follicular cell adenoma and carcinoma at highest dose): active; positive

Nc1cc(S(=O)(=O)O)cc2c1C(=O)/C(=N/Nc1ccc(-c3ccc(N/N=C4/C(=O)c5c(N)cc(S(=O)(=O)O)cc5C=C4S(=O)(=O)O)cc3)cc1)C(S(=O)(=O)O)=C2
carcinogen call (Species: RAT, Strain/Sex: F344/FEMALE, Route: ORAL, Dose: 0, 190, 375, 750, 1500, 3000 PPM IN DIET FOR 91 D (STUDY DURATION: 93 D), Dose: 0, 190, 375, 750, 1500, 3000 PPM IN DIET FOR 91 D (STUDY DURATION: 93 D), Tumor Site: Type of Lesion: LIVER: HEPATOCELLULAR CARCINOMA OR NEOPLASTIC NODULE, FOCI OF CELLULAR ALTERATION OR BASOPHILIC FOCI): active; positive | carcinogen call (Species: RAT, Strain/Sex: F344/MALE, Route: ORAL, Dose: 0, 190, 375, 750, 1500, 3000 PPM IN DIET FOR 91 D (STUDY DURATION: 93 D), Dose: 0, 190, 375, 750, 1500, 3000 PPM IN DIET FOR 91 D (STUDY DURATION: 93 D), Tumor Site: Type of Lesion: LIVER: HEPATOCELLULAR CARCINOMA OR NEOPLASTIC NODULE, FOCI OF CELLULAR ALTERATION OR BASOPHILIC FOCI): active; positive

O=[N+]([O-])c1ccc2c(c1)Cc1ccccc1-2
carcinogen call (Species: RAT, Strain/Sex: WISTAR/MALE, Route: ORAL, Dose: 0, 0.24, 0.95, 2.37 MMOL/KG DIET FOR 11 MO FOLLOWED BY BASAL DIET FOR 13 MO (STUDY DURATION: 24 MO), Dose: 0, 0.24, 0.95, 2.37 MMOL/KG DIET FOR 11 MO FOLLOWED BY BASAL DIET FOR 13 MO (STUDY DURATION: 24 MO), Tumor Site: Type of Lesion: LIVER: HEPATOCELLULAR CARCINOMA, FORESTOMACH: SQUAMOUS CELL CARCINOMA, KIDNEY: CARCINOMA, Tumor Site: Type of Lesion: LIVER: HEPATOCELLULAR CARCINOMA, FORESTOMACH: SQUAMOUS CELL CARCINOMA, KIDNEY: CARCINOMA): active; positive

O[C@H]1C=Cc2c(ccc3cccnc23)[C@@H]1O
carcinogen call (Species: MOUSE, Strain/Sex: CD-1/FEMALE, Route: INTRAPERITONEAL, Dose: 0, 5, 10 AND 20 µL OF A 0.05 MOLAR SOLUTION ON DAYS 1, 8 AND 15 OF LIFE RESPECTIVELY (TOTAL DOSE: 1.75 UMOL) (STUDY DURA, Dose: 0, 5, 10 AND 20 µL OF A 0.05 MOLAR SOLUTION ON DAYS 1, 8 AND 15 OF LIFE RESPECTIVELY (TOTAL DOSE: 1.75 UMOL) (STUDY DURA): inactive; negative | carcinogen call (Species: MOUSE, Strain/Sex: CD-1/MALE, Route: INTRAPERITONEAL, Dose: 0, 5, 10 AND 20 µL OF A 0.05 MOLAR SOLUTION ON DAYS 1, 8 AND 15 OF LIFE RESPECTIVELY (TOTAL DOSE: 1.75 UMOL) (STUDY DURA, Dose: 0, 5, 10 AND 20 µL OF A 0.05 MOLAR SOLUTION ON DAYS 1, 8 AND 15 OF LIFE RESPECTIVELY (TOTAL DOSE: 1.75 UMOL) (STUDY DURA): inactive; negative

C/C=C/c1cc(OC)c(OC)cc1OC
carcinogen call (Species: MOUSE, Strain/Sex: B6C3F1/MALE, Route: INTRAPERITONEAL, Dose: 0, 0.25, 0.5 UMOL/G BW ONCE (STUDY DURATION: 10-11 MONTHS), Dose: 0, 0.25, 0.5 UMOL/G BW ONCE (STUDY DURATION: 10-11 MONTHS), Tumor Site: Type of Lesion: LIVER: HEPATOMA): active; positive | carcinogen call (Species: MOUSE, Strain/Sex: CD-1/FEMALE, Route: DERMAL, Dose: 0, 5 UMOL 1X/WK FOR 3 WK BEGINNING 24 HR POST FIRST TPA DOSE (2.5 UG IN 0.1 ML ACETONE), FOLLOWED BY 2.5 UG TPA IN 0.1 M): inactive; negative
